This is an account of results in US8618163B2, “Derivatives of cycloalkyl- and cycloalkenyl-1,2-dicarboxylic acid compounds having formyl peptide receptor like-1 (FPRL-1) agonist or antagonist activity” (Allergan, Inc., priority 2010, dated 2013).

Like-named read-outs stand apart in the source and are kept apart here.

The target of assay [1] is T1, FPR1 (Homo sapiens, UniProt P21462).
T1 construct: expressed in transfected cells; host or cells: HEK-Gqi5 (HEK cells with chimeric G protein Gqi5)
T1 sequence (P21462 1-350): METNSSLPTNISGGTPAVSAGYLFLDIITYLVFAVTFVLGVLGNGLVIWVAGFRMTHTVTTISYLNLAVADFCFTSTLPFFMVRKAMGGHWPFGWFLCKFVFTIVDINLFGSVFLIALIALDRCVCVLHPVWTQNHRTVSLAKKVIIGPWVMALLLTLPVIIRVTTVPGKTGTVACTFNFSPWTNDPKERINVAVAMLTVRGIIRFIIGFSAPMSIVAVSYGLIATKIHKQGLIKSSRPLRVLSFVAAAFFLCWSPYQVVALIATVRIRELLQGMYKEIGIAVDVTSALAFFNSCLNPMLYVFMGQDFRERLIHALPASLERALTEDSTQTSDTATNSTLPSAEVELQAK
The experiment in a line: compound-induced calcium activity on FLIPR Tetra in HEK-Gqi5 cells stable expressing FPR1. Set-up: FPR1 (rel. eff.): scale not given here. In kind it is cell-based. To be noted: for FPR1 (rel. eff.): relative efficacy. The procedure: (§1) CHO-Gal6 cells stably expressing FPRL1 were cultured in (F12, 10% FBS, 1% PSA, 400 μg/ml geneticin and 50 μg/ml hygromycin) and HEK-Gqi5 cells stable expressing FPR1 were cultured in (DMEM high glucose, 10% FBS, 1% PSA, 400 μg/ml geneticin and 50 μg/ml hygromycin). In general, the day before the experiment, 18,000 cells/well were plated in a 384-well clear bottom poly-d-lysine coated plate. The following day the screening compound-induced calcium activity was assayed on the FLIPR^Tetra. The drug plates were prepared in 384-well microplates using the EP3 and the MultiPROBE robotic liquid handling systems. Compounds were tested at concentrations ranging from 0.61 to 10,000 nM. Results are expressed as EC50 (nM) and efficacy values.

Assay [2] deals with T2, FPRL1 (Homo sapiens, UniProt P25090).
T2 construct: expressed in transfected cells; host or cells: CHO-Gal6 (CHO cells with G alpha 16)
T2 sequence (P25090 1-351): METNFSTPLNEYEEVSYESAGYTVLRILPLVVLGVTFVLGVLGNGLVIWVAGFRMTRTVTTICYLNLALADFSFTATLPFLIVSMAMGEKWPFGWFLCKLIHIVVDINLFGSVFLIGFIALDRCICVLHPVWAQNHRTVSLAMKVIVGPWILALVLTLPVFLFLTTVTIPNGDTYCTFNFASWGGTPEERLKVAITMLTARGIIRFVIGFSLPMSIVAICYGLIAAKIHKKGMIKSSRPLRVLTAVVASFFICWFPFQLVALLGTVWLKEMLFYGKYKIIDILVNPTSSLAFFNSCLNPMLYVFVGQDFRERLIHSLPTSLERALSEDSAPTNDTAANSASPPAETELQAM
The experiment in a line: compound-induced calcium activity on FLIPR Tetra in CHO-Gal6 cells stably expressing FPRL1. The following applies: for FPRL1 (rel. eff.): relative efficacy. In kind it is cell-based. On the procedure: as §1

[3] abbreviates: class symbol NA, read-out: FPR1 EC50 (NA = Not Active).
Where [4] appears, read: calcium, FLIPR Tetra, tested 0.61 to 10,000 nM, read-out: FPRL1 EC50.
[5] abbreviates: calcium, FLIPR Tetra, tested 0.61 to 10,000 nM, read-out: FPR1 EC50.

Regarding `O=C(O)C1C(C(=O)Nc2ccc(SC(F)(F)F)cc2)C2C=CC1C21CC1` (racemic) [Compound 4, (+/−)-(1S,4R,5S,6R)-6-(4-(Trifluoromethylthio)phenylcarbamoyl)Spiro[bicyclo[2.2.1]hept[2]ene-7,1′-cyclopropane]-5-carboxylic Acid], the EC50 was over 10000 nM in assay [1] (setting [3]) and 709 nM in assay [2] (setting [4]). Besides, the “FPRL1 (rel. eff.)” value in assay [2] (calcium, FLIPR Tetra) is recorded as 0.84.
In the case of `CC(C)(C)c1ccc(NC(=O)C2C(C(=O)O)C3C=CC2C32CC2)cc1` (racemic) [Compound 5, (+/−)-(1R,4S,5R,6S)-5-(4-tert-Butylphenylcarbamoyl)spiro[bicyclo[2.2.1]hept[2]ene-7,1′-cyclopropane]-6-carboxylic Acid], the EC50 in assay [1] (setting [3]) was over 10000 nM; in assay [2] (class symbol NA, read-out: FPRL1 EC50 (NA = Not Active)) it was over 10000 nM.
Consider `CC(C)c1ccc(NC(=O)C2C(C(=O)O)C3C=CC2C32CC2)cc1` (racemic) [Compound 6, (+/−)-(1S,4R,5S,6R)-6-(4-Isopropylphenylcarbamoyl)spiro[bicyclo[2.2.1]hept[2]ene-7,1′-cyclopropane]-5-carboxylic Acid], for which the EC50 in assay [1] (setting [3]) was over 10000 nM. Further, the “FPRL1 (rel. eff.)” value in assay [2] (calcium, FLIPR Tetra) is on record as “ND (0.39)”.
On the same counts, the results for `O=C(O)C1C(C(=O)Nc2ccccc2)C2C=CC1C21CC1` (racemic) [Compound 7, (+/−)-(1S,4R,5S,6R)-6-(Phenylcarbamoyl)spiro[bicycle[2.2.1]hept[2]ene-7,1′cyclopropane]-5-carboxylic Acid] are over 10000 nM and “ND (0.33)”.
Take `NS(=O)(=O)c1ccc(NC(=O)C2C(C(=O)O)C3C=CC2C32CC2)cc1` (racemic) [Compound 8, (+/−)-(1S,4R,5S,6R)-6-(4-Sulfamoylphenylcarbamoyl)spiro[bicyclo[2.2.1]hept[2]ene-7,1′-cyclopropane]-5-carboxylic Acid]: the EC50 in assay [1] (setting [3]) was over 10000 nM; in assay [2] (setting [4]) it was 2710 nM. Besides, in assay [2] (calcium, FLIPR Tetra), the “FPRL1 (rel. eff.)” value turned out to be 0.51.
Turning to `O=C(O)[C@@H]1[C@H](C(=O)Nc2ccc(I)cc2)[C@@H]2CC[C@H]1C21CC1` (racemic) [Compound 9, (+/−)-(1R,2S,3R,4S)-3-(4-Iodophenylcarbamoyl)spiro[bicyclo[2.2.1]heptane-7,1′-cyclopropane]-2-carboxylic Acid], the values for the EC50 in assay [1] (setting [5]) and in assay [2] (setting [4]) were 269 nM and 1 nM, respectively. Besides, the “FPR1 (rel. eff.)” value in assay [1] (calcium, FLIPR Tetra) is 0.73. Moreover, the “FPRL1 (rel. eff.)” value in assay [2] (calcium, FLIPR Tetra) was determined as 0.80.
For the molecule `O=C(O)[C@@H]1[C@H](C(=O)Nc2ccc(Cl)cc2)[C@@H]2CC[C@H]1C21CC1` (racemic) [Compound 11, (+/−)-(1R,2S,3R,4S)-3-(4-Chlorophenylcarbamoyl)spiro[bicyclo[2.2.1]heptane-7,1′-cyclopropane]-2-carboxylic Acid], the EC50 in assay [2] (setting [4]) was determined as 43 nM. Further, the “FPRL1 (rel. eff.)” value in assay [2] (calcium, FLIPR Tetra) came to 0.86.
As to `CC1(C)[C@@H]2CC[C@H]1[C@@H](C(=O)Nc1ccc(I)cc1)[C@H]2C(=O)O` (racemic) [Compound 12, (+/−)-(1R,2S,3R,4S)-3-(4-Iodophenylcarbamoyl)-7,7-dimethylbicyclo[2.2.1]heptane-2-carboxylic Acid], the EC50 in assay [1] (setting [5]) worked out at 343 nM. In addition, in assay [1] (calcium, FLIPR Tetra), the “FPR1 (rel. eff.)” value was determined as 68.
Regarding `COC(=O)C1C(C(=O)Nc2ccc(I)cc2)C2C=CC1C21CC1` (racemic) [Compound 16, Methyl(+/−)-(1S,4R,5S,6R)-6-(4-Iodophenylcarbamoyl)spiro[bicyclo[2.2.1]hept[2]ene-7,1′-cyclopropane]-5-carboxylate], the EC50 in assay [2] (setting [4]) was found to be 403 nM. Besides, in assay [2] (calcium, FLIPR Tetra), the “FPRL1 (rel. eff.)” value came to 0.72.
On to `CC(C)=C1C2C=CC1C(C(=O)Nc1ccc(I)cc1)C2C(=O)O` (racemic) [Compound 22, (+/−)-(1S,4R,5S,6R)-6-(4-Iodophenylcarbamoyl)[bicyclo[2.2.1]hept[2]ene-7-propan-2-ylidene]-5-carboxylic Acid], for which the EC50 in assay [1] (setting [5]) is 8030 nM. Moreover, in assay [1] (calcium, FLIPR Tetra), the “FPR1 (rel. eff.)” value stood at 62.
As for `COc1ccccc1NC(=O)C1C(C(=O)O)C2C=CC1C21CC1` (racemic) [Compound 29, (+/−)-(1S,4R,5S,6R)-6-((2-Methoxyphenyl)carbamoyl)spiro[bicyclo[2.2.1]hept[2]ene-7,1′-cyclopropane]-5-carboxylic Acid], the EC50 in assay [2] (setting [4]) is 3170 nM. For the same molecule, the “FPRL1 (rel. eff.)” value in assay [2] (calcium, FLIPR Tetra) was found to be 1.1.
Take `N#Cc1ccc(-c2ccc(NC(=O)C3C(C(=O)O)C4C=CC3C43CC3)cc2)cc1` (racemic) [Compound 30, (+/−)-(1S,4R,5S,6R)-6-((4′-Cyano-[1,1′-biphenyl]-4-yl)carbamoyl)spiro[bicyclo-[2.2.1]hept[2]ene-7,1′-cyclopropane]-5-carboxylic Acid]: the EC50 in assay [2] (setting [4]) came out at 2880 nM. For the same molecule, the “FPRL1 (rel. eff.)” value in assay [2] (calcium, FLIPR Tetra) is listed as 0.97.
On the same counts, the results for `O=C(O)C1C(C(=O)Nc2cccc(C(F)(F)F)c2)C2CCC1C21CC1` (racemic) [Compound 37, (+/−)-(1R,2S,3R,4S)-3-β3-(Trifluoromethyl)phenyl)carbamoyl)spiro[bicyclo-[2.2.1]heptane-7,1′-cyclopropane]-2-carboxylic Acid] are 978 nM and 0.86.
For `O=C(O)[C@@H]1[C@H](C(=O)Nc2ccc(Cl)c(Cl)c2)[C@@H]2CC[C@H]1C21CC1` (racemic) [Compound 38, (+/−)-(1R,2S,3R,4S)-3-((3,4-Dichlorophenyl)carbamoyl)spiro[bicyclo[2.2.1]heptane-7,1′-cyclopropane]-2-carboxylic Acid] the same measures were 498 nM and 1.00.
For `COc1ccccc1NC(=O)[C@H]1[C@@H](C(=O)O)[C@H]2CC[C@@H]1C21CC1` (racemic) [Compound 39, (+/−)-(1R,2S,3R,4S)-3-((2-Methoxyphenyl)carbamoyl)spiro[bicyclo[2.2.1]heptane-7,1′-cyclopropane]-2-carboxylic Acid] the same measures were over 3000 nM and 1.2.
In the case of `NC(=O)C1C(C(=O)Nc2ccc(Br)cc2)C2C=CC1C21CC1` (racemic) [Compound 47, (+/−)-(1R,4S,5R,6S)—N-5-(4-Bromophenyl)spiro[bicyclo[2.2.1]hept[2]ene-7,1′-cyclopropane]-5,6-dicarboxamide], the EC50 in assay [1] (setting [3]) was over 10000 nM.
On the same count and under the same terms, the same measure for `CC1(C)[C@@H]2CC[C@H]1[C@@H](C(=O)Nc1ccc(Br)cc1)[C@H]2C(N)=O` (racemic) [Compound 54, (+/−)-(1S,2R,3S,4R)—N2-(4-Bromophenyl)-7,7-dimethylbicyclo[2.2.1]heptane-2,3-dicarboxamide]: over 10000 nM.
For `CN(C)C(=O)C1C(C(=O)Nc2ccc(Br)cc2)C2C=CC1C21CC1` (racemic) [Compound 76, (+/−)-(1S,4S,5R,6S)—N^5-(4-Bromophenyl)-N^6,N^6-dimethylspiro[bicyclo[2.2.1]hept[2]ene]-7,1′-cyclopropane]-5,6-dicarboxamide], the EC50 in assay [2] (setting [4]) was 3720 nM. For the same molecule, in assay [2] (calcium, FLIPR Tetra), the “FPRL1 (rel. eff.)” value is on record as 0.5.
In the case of `COC(=O)C1C(C(=O)Nc2ccc(Br)cc2)C2CCC1C21CC1` (racemic) [Compound 83, (+/−)-(1S,4S,5R,6S)-Methyl 2-((4-bromophenyl)carbamoyl)spiro[bicyclo[2.2.1]heptane-7,1′-cyclopropane]-3-carboxylate], the EC50 in assay [2] (setting [4]) came to 1680 nM. The “FPRL1 (rel. eff.)” value in assay [2] (calcium, FLIPR Tetra) is 0.68.
For `CCOC(=O)[C@@H]1[C@H](C(=O)Nc2ccc(Br)cc2)[C@@H]2CC[C@H]1C21CC1` (racemic) [Compound 84, (+/−)-(1S,2R,3S,4R)-Ethyl 2-((4-bromophenyl)carbamoyl)spiro[bicyclo[2.2.1]heptane-7,1′-cyclopropane]-3-carboxylate] the same measures were 1370 nM and 0.74.
For `O=C1[C@@H]2[C@H](C(=O)N1c1ccc(Br)cc1)[C@@H]1CC[C@H]2C12CC2` [Compound 90, (3aR,4S,7R,7aS)-2-(4-Bromophenyl)-hexahydro-1H-spiro[4,7-methanoisoindole-8,1′-cyclopropane]-1,3(2H)-dione] the same measures were 6560 nM and 0.38.
For “(+/−)-(1R,2S,3R,4S)-3-((4-(Methylsulfonyl)phenyl)carbamoyl)spiro[bicyclo[2.2.1]-heptane-7,1′-cyclopropane]-2-carboxylic Acid [Compound 71]”, the EC50 in assay [1] (setting [3]) is over 10000 nM.
